Reference: patent publication US3951955A, “Penicillins substituted with heterocyclic groups” (Sumitomo Chemical Company, Limited, priority 1970, dated 1976)
≈ marks a conversion by molar mass, not a printed value. Structures can show the parent of a compound that is named as a salt.

Legend:
Assay in all cases: minimal inhibitory concentration, agar dilution method (in vitro)
Format in all cases: cell-based
[1] = system: Staphylococcus aureus 209P
Source text: (§1) When determined according to the agar dilution method, the penicillins [I] afford the minimal inhibitory concentrations as shown in the following Table 1: […]

[2] = system: Klebsiella pneumoniae 602
Source text: as §1

Proteus miravilis 2425 = system: Proteus miravilis 2425
Source text: as §1

[3] = system: Pseudomonas aeruginosa 104
Source text: as §1

Escherichia coli NIHJ = system: Escherichia coli NIHJ
Source text: as §1

Row | SMILES | MIC [1] [µg/mL] | MIC [2] [µg/mL] | MIC (Proteus miravilis 2425) [µg/mL] | MIC [3] [µg/mL] | MIC (Escherichia coli NIHJ) [µg/mL]
1 | COc1cc2ncc(C(=O)NC(C(=O)NC3C(=O)N4C3SC(C)(C)C4C(=O)O)c3ccccc3)c(O)c2cn1 (stereo not drawn) [Example 60] | 1.56 (≈ 2.83 µM) | 3.13 (≈ 5.67 µM) | 3.13 (≈ 5.67 µM) | 12.5 (≈ 22.7 µM) | 6.25 (≈ 11.3 µM)
2 | Cc1ccc2ncc(C(=O)NC(C(=O)NC3C(=O)N4C3SC(C)(C)C4C(=O)O)c3ccccc3)c(O)c2n1 (stereo not drawn) [Example 32] | 0.78 (≈ 1.46 µM) | 3.13 (≈ 5.84 µM) | 1.56 (≈ 2.91 µM) | 3.13 (≈ 5.84 µM) | 1.56 (≈ 2.91 µM)
3 | CN(C)c1ncc2ncc(C(=O)NC(C(=O)NC3C(=O)N4C3SC(C)(C)C4C(=O)O)c3ccccc3)c(O)c2n1 (stereo not drawn) [Example 51] | 0.78 (≈ 1.38 µM) | 0.78 (≈ 1.38 µM) | 1.56 (≈ 2.76 µM) | 3.13 (≈ 5.53 µM) | 0.78 (≈ 1.38 µM)
4 | CC1(C)SC2C(NC(=O)C(NC(=O)c3cnc4nc(N)ncc4c3O)c3ccccc3)C(=O)N2C1C(=O)O (stereo not drawn) [Example 49] | 0.78 (≈ 1.45 µM) | 6.25 (≈ 11.6 µM) | 6.25 (≈ 11.6 µM) | 12.5 (≈ 23.3 µM) | 6.25 (≈ 11.6 µM)
5 | COc1nc(O)nc2c(O)c(C(=O)NC(C(=O)NC3C(=O)N4C3SC(C)(C)C4C(=O)O)c3ccccc3)cnc12 (stereo not drawn) [Example 52] | 1.56 (≈ 2.74 µM) | 3.13 (≈ 5.51 µM) | 3.13 (≈ 5.51 µM) | 6.25 (≈ 11 µM) | 3.13 (≈ 5.51 µM)
6 | Cc1nc2cc3c(cc2c(O)c1C(=O)N[C@@H](C(=O)N[C@@H]1C(=O)N2[C@@H]1SC(C)(C)[C@@H]2C(=O)O)c1ccccc1)OCO3 [Example 7, D-(-)-α-(2-methyl-6,7-methylenedioxy-4-hydroxyquinoline-3-carbonamido)-benzylpenicillin potassium salt] | 0.2 |  | 6.25 | 12.5 | 12.5
7 | COc1c(C(=O)NC(C(=O)N[C@@H]2C(=O)N3[C@@H]2SC(C)(C)[C@@H]3C(=O)O)c2ccccc2)cnc2ccccc12 (stereo partly drawn) [Example 14] | 0.2 (≈ 0.374 µM) | 25 (≈ 46.8 µM) | 12.5 (≈ 23.4 µM) | 12.5 (≈ 23.4 µM) | 25 (≈ 46.8 µM)
8 | CN(C)c1ccc2ncc(C(=O)NC(C(=O)NC3C(=O)N4C3SC(C)(C)C4C(=O)O)c3cccs3)c(O)c2n1 (stereo not drawn) [Example 38] | 0.78 (≈ 1.37 µM) | 1.56 (≈ 2.73 µM) | 1.56 (≈ 2.73 µM) | 6.25 (≈ 11 µM) | 1.56 (≈ 2.73 µM)
9 | COc1ccc2ncc(C(=O)NC(C(=O)N[C@@H]3C(=O)N4[C@@H]3SC(C)(C)[C@@H]4C(=O)O)c3ccccc3)c(O)c2n1 (stereo partly drawn) [Example 28] | 0.78 (≈ 1.41 µM) | 3.13 (≈ 5.67 µM) | 1.56 (≈ 2.83 µM) | 3.13 (≈ 5.67 µM) | 1.56 (≈ 2.83 µM)
10 | CC1(C)S[C@@H]2[C@H](NC(=O)C(NC(=O)c3cnc4cccnc4c3O)c3ccccc3)C(=O)N2[C@H]1C(=O)O (stereo partly drawn) [Example 27] | 0.78 (≈ 1.5 µM) | 6.25 (≈ 12 µM) | 3.13 (≈ 6 µM) | 3.13 (≈ 6 µM) | 1.56 (≈ 2.99 µM)
11 | Cc1nc(C)c2ncc(C(=O)NC(C(=O)NC3C(=O)N4C3SC(C)(C)C4C(=O)O)c3ccccc3)c(O)c2n1 (stereo not drawn) [Example 55] | 0.78 (≈ 1.42 µM) | 1.56 (≈ 2.83 µM) | 3.13 (≈ 5.68 µM) | 3.13 (≈ 5.68 µM) | 3.13 (≈ 5.68 µM)
12 | CN(C)c1ccc2ncc(C(=O)NC(C(=O)N[C@@H]3C(=O)N4[C@@H]3SC(C)(C)[C@@H]4C(=O)O)c3ccccc3)c(O)c2n1 (stereo partly drawn) [Example 12] | 0.1 (≈ 0.177 µM) |  | 3.13 (≈ 5.54 µM) | 3.13 (≈ 5.54 µM) | 6.25 (≈ 11.1 µM)
13 | Cc1ncc2ncc(C(=O)NC(C(=O)NC3C(=O)N4C3SC(C)(C)C4C(=O)O)c3ccccc3)c(O)c2n1 (stereo not drawn) [Example 56] | 0.78 (≈ 1.45 µM) | 3.13 (≈ 5.83 µM) | 6.25 (≈ 11.6 µM) | 3.13 (≈ 5.83 µM) | 3.13 (≈ 5.83 µM)
14 | CN(C)c1nccc2ncc(C(=O)NC(C(=O)NC3C(=O)N4C3SC(C)(C)C4C(=O)O)c3ccccc3)c(O)c12 (stereo not drawn) [Example 45] | 0.78 (≈ 1.38 µM) | 3.13 (≈ 5.54 µM) | 6.25 (≈ 11.1 µM) | 12.5 (≈ 22.1 µM) | 6.25 (≈ 11.1 µM)
15 | CC1(C)S[C@@H]2[C@H](NC(=O)C(NC(=O)c3cnc4cc(S(C)(=O)=O)ccc4c3O)c3ccccc3)C(=O)N2[C@H]1C(=O)O (stereo partly drawn) [Example 22] | 0.39 (≈ 0.651 µM) | 0.39 (≈ 0.651 µM) | 3.13 (≈ 5.23 µM) | 6.25 (≈ 10.4 µM) | 12.5 (≈ 20.9 µM)
16 | CC1(C)SC2C(NC(=O)C(NC(=O)c3cnc4cnc(N)nc4c3O)c3ccccc3)C(=O)N2C1C(=O)O (stereo not drawn) [Example 59] | 0.78 (≈ 1.45 µM) | 1.56 (≈ 2.9 µM) | 3.13 (≈ 5.82 µM) | 3.13 (≈ 5.82 µM) | 3.13 (≈ 5.82 µM)
17 | CCOc1c(C(=O)NC(C(=O)N[C@@H]2C(=O)N3[C@@H]2SC(C)(C)[C@@H]3C(=O)O)c2ccccc2)cnc2ccccc12 (stereo partly drawn) [Example 13] | 0.2 (≈ 0.365 µM) |  | 25 (≈ 45.6 µM) | 50 (≈ 91.1 µM) | 12.5 (≈ 22.8 µM)
18 | CCCCN(CCCC)c1ccc2ncc(C(=O)NC(C(=O)NC3C(=O)N4C3SC(C)(C)C4C(=O)O)c3ccccc3)c(O)c2n1 (stereo not drawn) [Example 42] | 1.56 (≈ 2.4 µM) | 3.13 (≈ 4.82 µM) | 3.13 (≈ 4.82 µM) | 3.13 (≈ 4.82 µM) | 3.13 (≈ 4.82 µM)

Row | SMILES | MIC [1] [µg/mL] | MIC [2] [µg/mL] | MIC (Proteus miravilis 2425) [µg/mL] | MIC [3] [µg/mL] | MIC (Escherichia coli NIHJ) [µg/mL]
19 | CCOC(=O)Oc1c(C(=O)N[C@@H](C(=O)N[C@@H]2C(=O)N3[C@@H]2SC(C)(C)[C@@H]3C(=O)O)c2ccccc2)cnc2nc(C)ccc12 [Example 5, D-(-)-α-(7-methyl-4-ethoxycarbonyloxy-1,8-naphthyridine-3-carbonamido)-benzylpenicillin] | 0.78 (≈ 1.28 µM) |  | 6.25 (≈ 10.3 µM) | 12.5 (≈ 20.6 µM) | 12.5 (≈ 20.6 µM)
20 | CCOC(=O)Oc1c(C(=O)NC(C(=O)N[C@@H]2C(=O)N3[C@@H]2SC(C)(C)[C@@H]3C(=O)O)c2ccccc2)cnc2cc(OC)ccc12 (stereo partly drawn) [Example 17] | 0.2 (≈ 0.321 µM) | 0.39 (≈ 0.626 µM) | 1.56 (≈ 2.51 µM) | 3.13 (≈ 5.03 µM) | 3.13 (≈ 5.03 µM)
21 | Cc1nc(C)c2c(O)c(C(=O)NC(C(=O)NC3C(=O)N4C3SC(C)(C)C4C(=O)O)c3ccccc3)cnc2n1 (stereo not drawn) [Example 48] | 0.78 (≈ 1.42 µM) | 3.13 (≈ 5.68 µM) | 6.25 (≈ 11.4 µM) | 12.5 (≈ 22.7 µM) | 12.5 (≈ 22.7 µM)
22 | CC1(C)S[C@@H]2[C@H](NC(=O)C(NC(=O)c3cnc4cc(C(F)(F)F)ccc4c3O)c3cccs3)C(=O)N2[C@H]1C(=O)O (stereo partly drawn) [Example 25] | 0.39 (≈ 0.656 µM) |  | 3.16 (≈ 5.31 µM) | 6.25 (≈ 10.5 µM) | 12.5 (≈ 21 µM)
23 | CSc1ccc2ncc(C(=O)NC(C(=O)N[C@@H]3C(=O)N4[C@@H]3SC(C)(C)[C@@H]4C(=O)O)c3ccccc3)c(O)c2n1 (stereo partly drawn) [Example 11] | 0.1 (≈ 0.176 µM) |  | 3.13 (≈ 5.51 µM) | 3.13 (≈ 5.51 µM) | 6.25 (≈ 11 µM)
24 | CN(C)c1ncc2c(O)c(C(=O)NC(C(=O)NC3C(=O)N4C3SC(C)(C)C4C(=O)O)c3ccccc3)cnc2n1 (stereo not drawn) [Example 46] | 1.56 (≈ 2.76 µM) | 1.56 (≈ 2.76 µM) | 3.13 (≈ 5.53 µM) | 3.13 (≈ 5.53 µM) | 3.13 (≈ 5.53 µM)
25 | CC1(C)S[C@@H]2[C@H](NC(=O)C(NC(=O)c3cnc4cc(Cl)ccc4c3O)c3ccccc3)C(=O)N2[C@H]1C(=O)O (stereo partly drawn) [Example 15] | 0.2 (≈ 0.36 µM) | 0.39 (≈ 0.703 µM) | 1.56 (≈ 2.81 µM) | 3.13 (≈ 5.64 µM) | 3.13 (≈ 5.64 µM)
26 | COc1c(C(=O)NC(C(=O)N[C@@H]2C(=O)N3[C@@H]2SC(C)(C)[C@@H]3C(=O)O)c2ccccc2)cnc2cc3c(cc12)OCO3 (stereo partly drawn) [Example 10] | 0.2 (≈ 0.346 µM) |  | 25 (≈ 43.2 µM) | 25 (≈ 43.2 µM) | 12.5 (≈ 21.6 µM)
27 | CC1(C)S[C@@H]2[C@H](NC(=O)[C@H](NC(=O)c3cnc4ccccc4c3O)c3ccccc3)C(=O)N2[C@H]1C(=O)O [Example 3, D-(-)-α-(4-hydroxyquinoline-3-carbonamido)-benzylpenicillin] | 0.2 (≈ 0.384 µM) | 1.56 (≈ 3 µM) | 3.13 (≈ 6.01 µM) | 6.25 (≈ 12 µM) | 6.25 (≈ 12 µM)
28 | COc1nccc2ncc(C(=O)NC(C(=O)NC3C(=O)N4C3SC(C)(C)C4C(=O)O)c3ccccc3)c(O)c12 (stereo not drawn) [Example 44] | 0.78 (≈ 1.41 µM) | 12.5 (≈ 22.7 µM) | 6.25 (≈ 11.3 µM) | 12.5 (≈ 22.7 µM) | 12.5 (≈ 22.7 µM)
29 | CC1(C)SC2C(NC(=O)C(NC(=O)c3cnc4cnc(NC(=O)OCc5ccccc5)nc4c3O)c3ccccc3)C(=O)N2C1C(=O)O (stereo not drawn) [Example 57] | 1.56 (≈ 2.32 µM) | 3.13 (≈ 4.66 µM) | 3.13 (≈ 4.66 µM) | 6.25 (≈ 9.3 µM) | 6.25 (≈ 9.3 µM)
30 | CC(=O)CC(=O)Nc1ccc2ncc(C(=O)NC(C(=O)NC3C(=O)N4C3SC(C)(C)C4C(=O)O)c3ccccc3)c(O)c2n1 (stereo not drawn) [Example 31] | 0.78 (≈ 1.26 µM) | 6.25 (≈ 10.1 µM) | 6.25 (≈ 10.1 µM) | 6.25 (≈ 10.1 µM) | 3.13 (≈ 5.04 µM)
31 | COc1nc(OC)c2ncc(C(=O)NC(C(=O)NC3C(=O)N4C3SC(C)(C)C4C(=O)O)c3ccccc3)c(O)c2n1 (stereo not drawn) [Example 54] | 1.56 (≈ 2.68 µM) | 3.13 (≈ 5.37 µM) | 3.13 (≈ 5.37 µM) | 6.25 (≈ 10.7 µM) | 6.25 (≈ 10.7 µM)
32 | CC1(C)S[C@@H]2[C@H](NC(=O)C(NC(=O)c3cnc4cc5c(cc4c3S)OCO5)c3ccccc3)C(=O)N2[C@H]1C(=O)O (stereo partly drawn) [Example 9] | 0.2 (≈ 0.344 µM) |  | 3.13 (≈ 5.39 µM) | 3.13 (≈ 5.39 µM) | 6.25 (≈ 10.8 µM)
33 | CC(C)(C)C(=O)Oc1c(C(=O)N[C@@H](C(=O)N[C@@H]2C(=O)N3[C@@H]2SC(C)(C)[C@@H]3C(=O)O)c2ccccc2)cnc2ccccc12 [Example 6, D-(-)-α-(4-pivaloyloxyquinoline-3-carbonamido)-benzylpenicillin] | 0.1 (≈ 0.165 µM) |  | 1.56 (≈ 2.58 µM) | 3.13 (≈ 5.18 µM) | 6.25 (≈ 10.3 µM)
34 | Cc1ccc2c(O)c(C(=O)N[C@@H](C(=O)N[C@@H]3C(=O)N4[C@@H]3SC(C)(C)[C@@H]4C(=O)O)c3ccccc3)cnc2n1 [Example 4, D-(-)-α-(7-methyl-4-hydroxy-1,8-naphthyridine-3-carbonamido)-benzylpenicillin potassium salt] | 0.78 |  | 6.25 | 6.25 | 12.5
35 | CCOC(=O)Oc1c(C(=O)N[C@@H](C(=O)N[C@@H]2C(=O)N3[C@@H]2SC(C)(C)[C@@H]3C(=O)O)c2ccccc2)cnc2ccccc12 [Example 1, D-(-)-α-(4-ethoxycarbonyloxyquinoline-3-carbonamido)-benzylpenicillin] | 0.2 (≈ 0.337 µM) |  | 1.56 (≈ 2.63 µM) | 3.13 (≈ 5.28 µM) | 6.25 (≈ 10.5 µM)
36 | CCSc1c(C(=O)NC(C(=O)N[C@@H]2C(=O)N3[C@@H]2SC(C)(C)[C@@H]3C(=O)O)c2ccccc2)cnc2cc3c(cc12)OCO3 (stereo partly drawn) [Example 8] | 0.2 (≈ 0.329 µM) |  | 12.5 (≈ 20.5 µM) | 25 (≈ 41.1 µM) | 12.5 (≈ 20.5 µM)
